This is an account of results in patent US7604949B2, “Methods and compositions that affect melanogenesis” (New York University, priority 1999, dated 2009).

One assay addresses p-glycoprotein ATPase (Cricetulus griseus, UniProt P21448). To be noted: micromolar concentrations; cited from earlier work.
For a further assay, the target named is T1, P protein (Mus musculus, UniProt Q62052).
T1 construct: expressed in transfected cells; host or cells: COS cells (monkey kidney), co-transfected with the tyrosinase vector
T1 sequence (Q62052 1-833): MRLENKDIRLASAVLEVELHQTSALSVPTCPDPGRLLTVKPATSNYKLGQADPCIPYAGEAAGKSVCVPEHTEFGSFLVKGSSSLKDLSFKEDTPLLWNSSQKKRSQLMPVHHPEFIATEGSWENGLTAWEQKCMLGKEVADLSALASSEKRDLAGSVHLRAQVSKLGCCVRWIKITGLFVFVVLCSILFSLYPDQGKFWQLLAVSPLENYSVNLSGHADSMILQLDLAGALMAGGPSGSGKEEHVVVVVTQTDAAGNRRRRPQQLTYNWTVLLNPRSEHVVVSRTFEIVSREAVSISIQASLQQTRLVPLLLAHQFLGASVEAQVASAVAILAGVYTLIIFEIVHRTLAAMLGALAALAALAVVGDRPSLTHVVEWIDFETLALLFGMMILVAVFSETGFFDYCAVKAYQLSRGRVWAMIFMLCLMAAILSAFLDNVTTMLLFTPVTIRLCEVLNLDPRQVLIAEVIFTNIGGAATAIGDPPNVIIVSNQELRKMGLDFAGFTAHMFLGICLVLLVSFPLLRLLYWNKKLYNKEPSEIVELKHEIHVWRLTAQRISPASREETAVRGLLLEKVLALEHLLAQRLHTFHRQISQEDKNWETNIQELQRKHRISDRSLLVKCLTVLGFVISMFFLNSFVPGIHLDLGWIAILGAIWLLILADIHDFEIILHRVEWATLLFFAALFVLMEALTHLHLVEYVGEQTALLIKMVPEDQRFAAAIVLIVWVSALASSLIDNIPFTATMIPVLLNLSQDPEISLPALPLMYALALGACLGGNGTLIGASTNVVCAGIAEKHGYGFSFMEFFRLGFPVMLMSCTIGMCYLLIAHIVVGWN
Description: Tyrosinase activity of extracts of COS cells transfected with tyrosinase-encoding and P protein-encoding genes (T+P). The assay is classed as cell-based. To be noted: vs untreated. From the text: (§1) Expression vectors were constructed to express P protein and tyrosinase genes in cultured cells. Specifically, the coding sequence for tyrosinase was removed as a HindIII-EcoRI fragment from clone TYBS (Yokohama et al., 1990, Nucl. Acids. Res. 18:7293-7298) and cloned into the HindIII/EcoRI sites of pcDNA I/lamp (Invitrogen, Calif.). Coding sequence for the P protein was removed as a BamHI-EcoRI fragment from MC2701 (Gardner et al., 1992, supra) and cloned into the BamHI/EcoRV sites of pcDNA3 and pcDNA3.1/V5/His-TOPO (Invitrogen, Calif.). COS cells were transfected with the pcDNA1-based plasmids and FuGENE™ 6 (Roche Molecular Biochemicals, Indianapolis, Ind.) as transfection agents for 48 hours. Cells were transformed with: (i) the vector alone; (ii) the vector carrying a tyrosinase-encoding gene; (iii) the vector carrying a P protein-encoding gene; or (iv) vectors carrying a tyrosinase-encoding gene and a P protein-encoding gene. Transformed cells were washed and extracted as above. Tyrosinase activity was then measured as above. Tyrosinase assays were performed on 60 micrograms of cell protein.
(§2) The tyrosinase activity of cell extracts was determined as above.

The target of assay [1] is T2, tyrosinase (Mus musculus, UniProt P11344).
T2 sequence (P11344 19-533): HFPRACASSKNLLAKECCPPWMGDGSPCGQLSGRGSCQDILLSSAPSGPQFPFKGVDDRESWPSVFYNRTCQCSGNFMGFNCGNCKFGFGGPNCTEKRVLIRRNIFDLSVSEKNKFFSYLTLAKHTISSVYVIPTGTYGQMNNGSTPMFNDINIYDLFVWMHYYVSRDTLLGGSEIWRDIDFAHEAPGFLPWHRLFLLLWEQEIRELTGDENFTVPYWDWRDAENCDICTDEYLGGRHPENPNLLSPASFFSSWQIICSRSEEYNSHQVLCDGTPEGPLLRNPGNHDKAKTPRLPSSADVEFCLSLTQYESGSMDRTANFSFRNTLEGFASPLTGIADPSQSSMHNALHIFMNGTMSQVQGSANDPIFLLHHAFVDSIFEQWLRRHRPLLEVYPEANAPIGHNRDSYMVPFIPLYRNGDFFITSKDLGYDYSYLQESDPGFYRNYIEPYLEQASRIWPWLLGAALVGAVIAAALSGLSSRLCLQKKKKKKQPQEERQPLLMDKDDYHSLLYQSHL
Description: Tyrosinase activity of melan-a cell extracts (radiometric tyrosine hydroxylase assay). The assay is classed as cell-based. The following applies: melan-a cells, 48 hours, vs untreated.
Description: Cells were washed and extracted with 50 mM Tris-HCl (pH 7.4), 2 mM EDTA, 150 mM NaCl and 1% Triton X-100. Cell extracts were analyzed for tyrosinase activity using a radiometric tyrosine hydroxylase assay (Orlow, S. J. et al., 1990, supra).

For assay [2], the target named is T2, tyrosinase. Description: Tyrosinase activity of extracts of COS cells transfected with tyrosinase-encoding gene alone (V+T). The assay is classed as cell-based. The following applies: vs untreated. Also on record: expressed in transfected cells; host or cells: COS cells (monkey kidney).
Description: as §1, §2

Assay [3] relates to amelanotic melanoma cells that express tyrosinase. The following applies: nanomolar concentrations; cited from earlier work.
The test system of assay [4] is Melan-a wild type melanocytes. Description: Melanin content after ATPase inhibitor treatment, Melan-a. The class given is cell-based, mouse. The following applies: 36 hours. As to the method:
(§3) Wild type melan-a (a/a, P/P), an immortalized melanocyte line derived from C57BL6J mice; melan-p1 melanocytes (a/a, p^cp/p^25H), an immortalized line derived from p-null mice; melan-p1 (P10), a melan-p1 line stably transfected with an expression plasmid carrying the pink-eyed dilution gene; B16, an amelanotic mouse melanoma cell line; and B16F10, a slightly pigmented mouse melanoma cell line, were used in this study.
(§4) Cells were cultured in RMPI-1640 (Sigma, St. Louis, Mo.) supplemented with 10% fetal calf serum, 5% sodium pyruvate, 5% glutamate, 5 units/ml penicillin, 5 μg/ml streptomycin, 1% non-essential amino acids and 200 nM 12-O-tetradecanoyl phorbol 13-acetate for 24 hours The medium was than replaced with RPMI containing either 0, 1, 2 or 2.5 μM bafilomycin A1 (Sigma, St. Louis, Mo.) or 0, 0.5 or 1.0 μM concanamycin A (Sigma, St. Louis, Mo.). […] The supernatant was removed and protein content determined using a protein assay kit (BioRad, Richmond, Calif.).
(§5) The melanin content in the pellet was determined following removal of the supernatant Each sample was treated with 0.5 ml ethanol:ether (1:1), vortexed and incubated at room temperature for 10 minutes. […] The sample was then transferred to a 96-well plate and the optical density was read at 490 nm. […]

In another assay the test system is B16F10 melanoma cells. In words: Melanin content after ATPase inhibitor treatment, B16F10. The following applies: 36 hours. The class given is cell-based, mouse. How it is done: as §3, §4, §5
A further assay has as its system Melan-p (P10) cells. In words: Melanin content after ATPase inhibitor treatment, Melan-p (P10). The class given is cell-based, mouse. To be noted: 36 hours. As to the method: as §3, §4, §5
For another assay, the system named is B16 melanoma cells. In words: Melanin content after ATPase inhibitor treatment, B16. The assay is classed as cell-based, mouse. To be noted: 36 hours. How it is done: as §3, §4, §5
Assay [5] relates to Melan-p p-null melanocytes. Description: Melanin content after ATPase inhibitor treatment, Melan-p. The assay is classed as cell-based, mouse. The following applies: 36 hours. How it is done:
as §3, §4, §5

The test system of assay [6] is late endosomal/lysosomal cholesterol trafficking. The following applies: cited from earlier work.
Where [7] appears, read: bafilomycin A1 0, 1, 2 or 2.5 μM.
Setting [8] is: concanamycin A 0, 0.5 or 1.0 μM.

Sequence of p-glycoprotein ATPase (P21448 whole entry): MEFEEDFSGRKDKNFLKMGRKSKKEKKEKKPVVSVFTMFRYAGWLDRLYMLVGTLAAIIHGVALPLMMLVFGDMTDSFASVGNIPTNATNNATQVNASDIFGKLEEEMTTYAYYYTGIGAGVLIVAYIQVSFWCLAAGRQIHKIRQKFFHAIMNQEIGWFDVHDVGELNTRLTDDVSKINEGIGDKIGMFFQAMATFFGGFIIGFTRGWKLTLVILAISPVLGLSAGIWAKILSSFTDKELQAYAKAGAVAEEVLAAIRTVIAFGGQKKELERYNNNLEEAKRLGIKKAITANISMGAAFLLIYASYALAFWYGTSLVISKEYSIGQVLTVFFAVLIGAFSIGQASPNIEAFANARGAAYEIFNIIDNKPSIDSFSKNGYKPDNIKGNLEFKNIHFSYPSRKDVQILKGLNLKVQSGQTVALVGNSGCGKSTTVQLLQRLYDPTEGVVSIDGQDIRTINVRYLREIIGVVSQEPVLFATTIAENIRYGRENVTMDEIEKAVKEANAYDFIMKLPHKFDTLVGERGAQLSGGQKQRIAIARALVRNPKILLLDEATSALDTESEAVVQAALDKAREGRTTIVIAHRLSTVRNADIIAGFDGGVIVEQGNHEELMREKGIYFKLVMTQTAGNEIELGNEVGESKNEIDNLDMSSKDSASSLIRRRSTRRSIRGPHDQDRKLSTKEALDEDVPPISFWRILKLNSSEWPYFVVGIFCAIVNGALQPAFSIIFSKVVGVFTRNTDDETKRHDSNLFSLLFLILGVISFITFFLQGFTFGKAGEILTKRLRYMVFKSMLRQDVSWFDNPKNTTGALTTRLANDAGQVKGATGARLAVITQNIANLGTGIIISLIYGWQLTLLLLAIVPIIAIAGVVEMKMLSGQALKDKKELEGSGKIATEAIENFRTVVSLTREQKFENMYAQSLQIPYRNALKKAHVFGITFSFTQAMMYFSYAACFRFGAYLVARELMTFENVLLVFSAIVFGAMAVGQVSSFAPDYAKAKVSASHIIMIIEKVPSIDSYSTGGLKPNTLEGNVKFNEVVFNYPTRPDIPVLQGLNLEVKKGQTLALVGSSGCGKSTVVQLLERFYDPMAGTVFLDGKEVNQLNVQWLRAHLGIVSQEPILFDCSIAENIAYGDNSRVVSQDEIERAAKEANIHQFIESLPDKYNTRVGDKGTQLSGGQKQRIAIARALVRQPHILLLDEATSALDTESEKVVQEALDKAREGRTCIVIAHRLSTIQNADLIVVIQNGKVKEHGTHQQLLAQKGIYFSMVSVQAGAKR

For the molecule `C/C=C/[C@H]1O[C@@](O)([C@@H](C)[C@H](O)[C@H](C)[C@H]2OC(=O)/C(OC)=C/C(C)=C/[C@@H](C)[C@@H](O)[C@@H](C)[C@@H](O)[C@H](C)C/C(C)=C/C=C/[C@@H]2OC)C[C@@H](O[C@H]2C[C@@H](O)[C@H](OC(N)=O)[C@@H](C)O2)[C@@H]1C` [concanamycin B], the “inhibition of p-glycoprotein ATPase activity” value at p-glycoprotein ATPase was “inhibit p-glycoprotein ATPase activity at micromolar concentrations”.
As for `CN1[C@@H]2CC[C@H]1C[C@@H](OC(c1ccccc1)c1ccccc1)C2` [benztropine], the “tyrosinase activity of extracts, cells expressing both P protein and tyrosinase” value on P protein (10 micromolar compound) is reported as “did not have an appreciable effect”. Also, at tyrosinase [1] (10 micromolar compound), the “tyrosinase activity of cell extracts” value is “greater tyrosinase activities than untreated cells”. Also, at tyrosinase [2] (10 micromolar compound), the “tyrosinase activity of extracts, cells expressing only tyrosinase” value is “did not have an appreciable effect”.
With `CO/C1=C\C(C)=C\[C@@H](C)[C@@H](O)[C@@H](C)C/C(C)=C/C=C/[C@H](OC)[C@@H]([C@@H](C)[C@@H](O)[C@H](C)[C@@]2(O)C[C@@H](O)[C@H](C)[C@@H](C(C)C)O2)OC1=O` [bafilomycin A1], the activation of melanogenesis entry in assay [3] is recorded as “activate melanogenesis”. Moreover, the melanin content entry is listed as “initially increases in the presence of μM concentrations of bafilomycin A1 but drops at the highest concentration tested” in assay [4] (setting [7]); “initially increases in the presence of μM concentrations of bafilomycin A1 but drops at the highest concentration tested” in the assay with Melan-p (P10) cells (setting [7]); “does not respond” in the assay on B16 melanoma cells (B16, bafilomycin A1 0, 1, 2 or 2.5 μM). Moreover, the pigmentation result in the assay with B16F10 melanoma cells (B16F10, bafilomycin A1 0, 1, 2 or 2.5 μM) is on record as “demonstrates increasing pigmentation which diminishes at higher concentrations”. Besides, the “inhibition of p-glycoprotein ATPase activity” value at p-glycoprotein ATPase was “inhibit p-glycoprotein ATPase activity at micromolar concentrations”. The melanin levels entry in [5] (setting [7]) was “increased with an increase in bafilomycin A1 concentration”.
Turning to `CCCCCCCCCCCCC/C=C/[C@@H](O)[C@@H](N)CO` [sphingosine], in assay [6], the “cholesterol movement from the PM to the ER, from the late endosome/lysosome to the ER and to the PM” value is recorded as “inhibit cholesterol movement”.
As to `CC(=O)[C@H]1CC[C@H]2[C@@H]3CCC4=CC(=O)CC[C@]4(C)[C@H]3CC[C@]12C` [progesterone], in assay [6], the “cholesterol movement from the PM to the ER, from the late endosome/lysosome to the ER and to the PM” value is recorded as “inhibit cholesterol movement”.
For the molecule `O=C(O)/C=C\C(=O)O.O=[N+]([O-])c1ccc2nc(N3CCNCC3)ccc2c1` [nitroquipazine, 6-nitro-2-(1-piperazinyl)-quinoline maleate], the “tyrosinase activity of extracts, cells expressing both P protein and tyrosinase” value at P protein (30 micromolar compound) is on record as “lower tyrosinase activity”. The “tyrosinase activity of cell extracts” value on tyrosinase [1] (30 micromolar compound) is listed as “greater tyrosinase activities than untreated cells”. In addition, at tyrosinase [2] (30 micromolar compound), the “tyrosinase activity of extracts, cells expressing only tyrosinase” value is “lower tyrosinase activity”.
As to `C/C=C/[C@H]1O[C@@](O)([C@@H](C)[C@H](O)[C@H](C)[C@H]2OC(=O)/C(OC)=C/C(C)=C/[C@@H](C)[C@@H](O)[C@@H](CC)[C@@H](O)[C@H](C)C/C(C)=C/C=C/[C@@H]2OC)C[C@@H](O[C@H]2C[C@@H](O)[C@H](OC(N)=O)[C@@H](C)O2)[C@@H]1C` [concanamycin A], in [3], the activation of melanogenesis entry is listed as “activate melanogenesis”. The melanin content result was “is decreased” in [4] (setting [8]); “is decreased” in the assay on Melan-p (P10) cells (setting [8]); “does not respond” in the assay on B16 melanoma cells (B16, concanamycin A 0, 0.5 or 1.0 μM). Further, in the assay with B16F10 melanoma cells (B16F10, concanamycin A 0, 0.5 or 1.0 μM), the pigmentation entry is “demonstrates increasing pigmentation which diminishes at higher concentrations”. In addition, the “inhibition of p-glycoprotein ATPase activity” value on p-glycoprotein ATPase is “inhibit p-glycoprotein ATPase activity at micromolar concentrations”. For the same molecule, the melanin levels result in [5] (setting [8]) is “increase with an increase in concanamycin A concentration”.
